Experimental data reported in patent US4169953A (priority 1977, dated 1979).
In brackets after ≈: the same amount, converted by molar mass. Structures can show the parent of a compound that is named as a salt.

Legend:
[1] = in vitro; conditions: chicken, chick embryo fibroblasts
[2] = tested on: Newcastle disease virus; assay: microbe, parasite or virus in culture; format: cell-based; conditions: avian paramyxovirus 1, in Gallus gallus

SMILES	MCC [1] [µg/mL]	MIC [2] [µg/mL]
O=C(OC1CCCC1)C12CCCC(C1)C1CCC2C1 (centres unmarked)	200	40 (≈ 152 µM)
O=C(OC1CCCCC1)C12CCCC(C1)C1CCC2C1 (centres unmarked)	200	200 (≈ 724 µM)
O=C(OC1CC2CC1C1CCCC21)C12CCCC(C1)C1CCC2C1 (centres unmarked)	1000	200 (≈ 609 µM)
COC(=O)C12CCCC(C1)C1CCC2C1 (centres unmarked) [CH3]	200	200 (≈ 960 µM)
NC12CC3CC(CC(C3)C1)C2 [adamantylamine hydrochloride, reference compound]	250	250
CCCCOC(=O)C12CCCC(C1)C1CCC2C1 (centres unmarked) [n-C4 H9]	200	40 (≈ 160 µM)
CCCCCCCCOC(=O)C12CCCC(C1)C1CCC2C1 (centres unmarked) [n-C8 H17]	1000	200 (≈ 653 µM)
